# Source: patent US11708348B2, “Protease inhibitors for treatment of coronavirus infections” (The Scripps Research Institute, priority 2021, dated 2023)
# Counter-ions that a name gives are not always drawn.
# System: SARS-CoV-2 strain USA-WA1/2020
# Test: microbe, parasite or virus in culture
# Assay type: cell-based
# Conditions: HeLa-ACE2 cells, SARS-CoV-2 infection, 24 h; class symbols; read-out: EC50, uM (Hela)
row,SMILES,EC50
1,"COc1cccc2[nH]c(C(=O)N[C@@H](CC(C)C)C(=O)N[C@@H](C[C@@H]3CCNC3=O)C(=O)COC(=O)c3c(Cl)cccc3Cl)cc12 [Compound 3, (S)-3-((S)-2-(4-methoxy-1H-indole-2-carboxamido)-4-methylpentanamido)-2-oxo-4-((S)-2-oxopyrrolidin-3-yl)butyl 2,6-dichlorobenzoate]",0.2 to 0.5 µM

# Same assay, conditions: Severe acute respiratory syndrome coronavirus 2, HeLa-ACE2, 24 h, HeLa-ACE2 cells, SARS-CoV-2 infection, 24 h; cells given as a bound; read-out: EC50, uM (Hela)
row,SMILES,EC50
1,"CC(C)C[C@H](NC(=O)C(=O)Nc1ccccc1F)C(=O)N[C@@H](CC1CCCCC1)C(=O)COc1c(F)c(F)cc(F)c1F [Compound 80, N1-((S)-1-(((S)-1-cyclohexyl-3-oxo-4-(2,3,5,6-tetrafluorophenoxy)butan-2-yl)amino)-4-methyl-1-oxopentan-2-yl)-N2-(2-fluorophenyl)oxalamide]",> 1 µM

# Same assay, conditions: Severe acute respiratory syndrome coronavirus 2, HeLa-ACE2, 24 h, HeLa-ACE2 cells, SARS-CoV-2 infection, 24 h; class symbols; read-out: EC50, uM (Hela)
row,SMILES,EC50
1,"CC(C)C[C@H](NC(=O)C(=O)Nc1ccccc1C(C)C)C(=O)N[C@@H](C[C@@H]1CCNC1=O)C(=O)COc1c(F)c(F)cc(F)c1F [Compound 86, Nl-(2-isopropylphenyl)-N2-((S)-4-methyl-1-oxo-1-(((S)-3-oxo-1-((S)-2-oxopyrrolidin-3-yl)-4-(2,3,5,6-tetrafluorophenoxy)butan-2-yl)amino)pentan-2-yl)oxalamide]",< 0.05 µM
2,"O=C(Nc1ccccc1)C(=O)N[C@@H](CC1CC1)C(=O)N[C@@H](C[C@@H]1CCNC1=O)C(=O)COc1c(F)c(F)cc(F)c1F [Compound 30, N1-((S)-3-cyclopropyl-1-oxo-1-(((S)-3-oxo-1-((S)-2-oxopyrrolidin-3-yl)-4-(2,3,5,6-tetrafluorophenoxy)butan-2-yl)amino)propan-2-yl)-N2-phenyloxalamide]",< 0.05 µM
3,"CC1(C)[C@@H]2[C@@H](C(=O)N[C@@H](C[C@@H]3CCNC3=O)C(=O)COC(F)(F)F)N(C(=O)C(O)c3ccc(F)c(F)c3)C[C@@H]21 (stereo partly drawn) [Compound 401, (1R,2S,5S)-3-(2-(3,4-difluorophenyl)-2-hydroxyacetyl)-6,6-dimethyl-N-((S)-3-oxo-1-((S)-2-oxopyrrolidin-3-yl)-4-(trifluoromethoxy)butan-2-yl)-3-azabicyclo[3.1.0]hexane-2-carboxamide]",< 0.05 µM
4,"CC(C)C[C@H](NC(=O)C(=O)NC1CCC1)C(=O)N[C@@H](C[C@@H]1CCNC1=O)C(=O)COC(F)(F)F [Compound 221, N1-cyclobutyl-N2-((S)-4-methyl-1-oxo-1-(((S)-3-oxo-1-((S)-2-oxopyrrolidin-3-yl)-4-(trifluoromethoxy)butan-2-yl)amino)pentan-2-yl)oxalamide]",< 0.05 µM
5,"O=C1NCC[C@H]1C[C@H](NC(=O)[C@@H]1[C@H]2CCC[C@H]2CN1C(=O)C12CC(C(F)F)(CO1)C2)C(=O)COC(F)(F)F [Compound 321, (1S,3aR,6aS)-2-(4-(difluoromethyl)-2-oxabicyclo[2.1.1]hexane-1-carbonyl)-N-((S)-3-oxo-1-((S)-2-oxopyrrolidin-3-yl)-4-(trifluoromethoxy)butan-2-yl)octahydrocyclopenta-[c]pyrrole-1-carboxamide]",0.05 to 0.2 µM
6,"CC[C@@H](O)C(=O)N1C[C@@H]2CCC[C@@H]2[C@H]1C(=O)N[C@@H](C[C@@H]1CCNC1=O)C(=O)COC(F)(F)F [Compound 377, (1S,3aR,6aS)-2-((R)-2-hydroxybutanoyl)-N-((S)-3-oxo-1-((S)-2-oxopyrrolidin-3-yl)-4-(trifluoromethoxy)butan-2-yl)octahydrocyclo-penta[c]pyrrole-1-carboxamide]",0.05 to 0.2 µM
7,"CO[C@H](CC(C)C)C(=O)N1CC2(CC2)C[C@H]1C(=O)N[C@@H](C[C@@H]1CCNC1=O)C(=O)COC(F)(F)F [Compound 381, (S)-5-((R)-2-methoxy-4-methylpentanoyl)-N-((S)-3-oxo-1-((S)-2-oxopyrrolidin-3-yl)-4-(trifluoromethoxy)butan-2-yl)-5-azaspiro[2.4]heptane-6-carboxamide]",< 0.05 µM
8,"CC(C)C[C@H](NC(=O)C(=O)NC1CC1)C(=O)N[C@@H](C[C@@H]1CCNC1=O)C(=O)COC(F)(F)F [Compound 174, N1-cycl opropyl-N2-((S)-4-methyl-1-oxo-1-(((S)-3-oxo-1-((S)-2-oxopyrrolidin-3-yl)-4-(trifluoromethoxy)butan-2-yl)amino)pentan-2-yl)oxalamide]",< 0.05 µM
9,"CC[C@H](O)C(=O)N1C[C@H]2[C@@H]([C@H]1C(=O)N[C@@H](C[C@@H]1CCNC1=O)C(=O)COC(F)(F)F)C2(C)C [Compound 370, (1R,2S,5S)-3-((S)-2-hydroxybutanoyl)-6,6-dimethyl-N-((S)-3-oxo-1-((S)-2-oxopyrrolidin-3-yl)-4-(trifluoromethoxy)butan-2-yl)-3-azabicyclo[3.1.0]-hexane-2-carboxamide]",0.05 to 0.2 µM

# Same assay, conditions: Severe acute respiratory syndrome coronavirus 2, HeLa-ACE2, 24 h, HeLa-ACE2 cells, SARS-CoV-2 infection, 24 h; read-out: EC50, uM (Hela)
row,SMILES,EC50
1,"COC(C(=O)N1C[C@@H]2CCC[C@@H]2[C@H]1C(=O)N[C@@H](C[C@@H]1CCNC1=O)C(=O)COC(F)(F)F)c1cncc(Cl)n1 (stereo partly drawn) [Compound 621, (1S,3aR,6aS)-2-(2-(6-chloropyrazin-2-yl)-2-methoxyacetyl)-N-((S)-3-oxo-1-((S)-2-oxopyrrolidin-3-yl)-4-(trifluoromethoxy)butan-2-yl)octahydrocyclopenta[c]pyrrole-1-carboxamide]",0.05 to 0.2 µM
2,"O=C1NCC[C@H]1C[C@H](NC(=O)[C@@H]1C[C@@H](c2ccccc2)CN1C(=O)[C@@H](O)c1ccccc1)C(=O)COC(F)(F)F [Compound 780, (2S,4S)-1-((S)-2-hydroxy-2-phenylacetyl)-N-((S)-3-oxo-1-((S)-2-oxopyrrolidin-3-yl)-4-(trifluoromethoxy)butan-2-yl)-4-phenylpyrrolidine-2-carboxamide]",< 0.05 µM
3,"CC(C)(C)NC(=O)C(=O)N1CC2(CCCC2)CC1C(=O)N[C@@H](C[C@@H]1CCNC1=O)C(=O)COC(F)(F)F (stereo partly drawn) [Compound 657, 2-(2-(tert-butylamino)-2-oxoacetyl)-N-((S)-3-oxo-1-((S)-2-oxopyrrolidin-3-yl)-4-(trifluoromethoxy)butan-2-yl)-2-azaspiro[4.4]nonane-3-carboxamide]",< 0.05 µM
4,"CC(C)CCC(=O)N1CC2(CC2)C[C@H]1C(=O)N[C@@H](C[C@@H]1CCNC1=O)C(=O)COC(F)(F)F [Compound 429, (S)-5-(4-methylpentanoyl)-N—((S)-3-oxo-1-((S)-2-oxopyrrolidin-3-yl)-4-(trifluoromethoxy)butan-2-yl)-5-azaspiro[2.4]heptane-6-carboxamide]",< 0.05 µM
5,"O=C1NCC[C@H]1C[C@H](NC(=O)[C@@H]1CC2(CC2)CN1C(=O)[C@H](CO)c1ccccc1)C(=O)COC(F)(F)F [Compound 595, (S)-5-((S)-3-hydroxy-2-phenylpropanoyl)-N-((S)-3-oxo-1-((S)-2-oxopyrrolidin-3-yl)-4-(trifluoromethoxy)butan-2-yl)-5-azaspiro[2.4]-heptane-6-carboxamide]",0.05 to 0.2 µM
6,"O=C(NC1CCCCC1)C(=O)N1C[C@@H]2CCC[C@@H]2[C@H]1C(=O)N[C@@H](C[C@@H]1CCNC1=O)C(=O)COC(F)(F)F [Compound 467, (1S,3aR,6aS)-2-(2-(cyclohexylamino)-2-oxoacetyl)-N-((S)-3-oxo-1-((S)-2-oxopyrrolidin-3-yl)-4-(trifluoromethoxy)butan-2-yl)octahydrocyclo-penta[c]pyrrole-1-carboxamide]",0.5 to 1 µM
7,"CN1CCC[C@H]1C(=O)N1C[C@@H]2CCC[C@@H]2[C@H]1C(=O)N[C@@H](C[C@@H]1CCNC1=O)C(=O)COC(F)(F)F [Compound 440, (1S,3aR,6aS)-2-(methylprolyl)-N-((S)-3-oxo-1-((S)-2-oxopyrrolidin-3-yl)-4-(trifluoromethoxy)butan-2-yl)octahydrocyclo-penta[c]pyrrole-1-carboxamide]",0.5 to 1 µM
8,"COc1ccccc1NC(=O)C(=O)N1CC2(CC2)C[C@H]1C(=O)N[C@@H](C[C@@H]1CCNC1=O)C(=O)COC(F)(F)F [Compound 575, (S)-5-(2-((2-methoxyphenyl)-amino)-2-oxoacetyl)-N-((S)-3-oxo-1-((S)-2-oxopyrrolidin-3-yl)-4-(trifluoromethoxy)butan-2-yl)-5-azaspiro[2.4]-heptane-6-carboxamide]",0.5 to 1 µM
9,"C[C@](O)(C(=O)N1CC2(CC2)C[C@H]1C(=O)N[C@@H](C[C@@H]1CCNC1=O)C(=O)COC(F)(F)F)C(F)(F)F [Compound 700, (S)-N-((S)-3-oxo-1-((S)-2-oxopyrrolidin-3-yl)-4-(trifluoromethoxy)butan-2-yl)-5-((S)-3,3,3-trifluoro-2-hydroxy-2-methylpropanoyl)-5-azaspiro[2.4]heptane-6-carboxamide]",0.05 to 0.2 µM
10,"O=C(Nc1ccccc1Cl)C(=O)N1CC2(CC2)C[C@H]1C(=O)N[C@@H](C[C@@H]1CCNC1=O)C(=O)COC(F)(F)F [Compound 606, (S)-5-(2-((2-chlorophenyl)amino)-2-oxoacetyl)-N-((S)-3-oxo-1-((S)-2-oxopyrrolidin-3-yl)-4-(trifluoromethoxy)butan-2-yl)-5-azaspiro[2.4]heptane-6-carboxamide]",< 0.05 µM

# Same assay, conditions: Severe acute respiratory syndrome coronavirus 2, HeLa-ACE2, 24 h; read-out: EC50, uM (Hela)
row,SMILES,EC50
1,"CC(C)C[C@H](NC(=O)C(=O)Nc1ccc(Br)cc1F)C(=O)N[C@@H](C[C@@H]1CCNC1=O)C(=O)COc1c(F)c(F)cc(F)c1F [Compound 96, N1-(4-bromo-2-fluorophenyl)-N2-((S)-4-methyl-1-oxo-1-(((S)-3-oxo-1-((S)-2-oxopyrrolidin-3-yl)-4-(2,3,5,6-tetrafluorophenoxy)butan-2-yl)amino)pentan-2-yl)oxalamide]",0.05 to 0.2 µM
2,"CC(C)C[C@H](NC(=O)C(=O)Nc1ccccc1F)C(=O)N[C@@H](Cc1cnc[nH]1)C(=O)COc1c(F)c(F)cc(F)c1F (single isomer, unassigned) [Compound 135, trifluoroacetate]",0.5 to 1 µM
3,"CC(C)C[C@@H](O)C(=O)N1CCC[C@H]1C(=O)N[C@@H](C[C@@H]1CCNC1=O)C(=O)COC(F)(F)F [Compound 696, (S)-1-((R)-2-hydroxy-4-methylpentanoyl)-N-((S)-3-oxo-1-((S)-2-oxopyrrolidin-3-yl)-4-(trifluoromethoxy)butan-2-yl)pyrrolidine-2-carboxamide]",0.05 to 0.2 µM
